Results as given in publication PMC7873226, “Molecular mechanism and structural basis of small-molecule modulation of the gating of acid-sensing ion channel 1” (Communications Biology, 2021).
Like-named read-outs stand apart in the source and are kept apart here.

Columns and labels:
[1] = biological target: T1, rat ASIC1a (Rattus norvegicus, UniProt P55926); experiment: Kinetics of onset of and recovery (wash) from compound inhibition; type: cell-based; conditions: wash after 100 nM, holding pH 8.2, one cell
T1 construct: expressed in transfected cells
T1 sequence (P55926 1-526): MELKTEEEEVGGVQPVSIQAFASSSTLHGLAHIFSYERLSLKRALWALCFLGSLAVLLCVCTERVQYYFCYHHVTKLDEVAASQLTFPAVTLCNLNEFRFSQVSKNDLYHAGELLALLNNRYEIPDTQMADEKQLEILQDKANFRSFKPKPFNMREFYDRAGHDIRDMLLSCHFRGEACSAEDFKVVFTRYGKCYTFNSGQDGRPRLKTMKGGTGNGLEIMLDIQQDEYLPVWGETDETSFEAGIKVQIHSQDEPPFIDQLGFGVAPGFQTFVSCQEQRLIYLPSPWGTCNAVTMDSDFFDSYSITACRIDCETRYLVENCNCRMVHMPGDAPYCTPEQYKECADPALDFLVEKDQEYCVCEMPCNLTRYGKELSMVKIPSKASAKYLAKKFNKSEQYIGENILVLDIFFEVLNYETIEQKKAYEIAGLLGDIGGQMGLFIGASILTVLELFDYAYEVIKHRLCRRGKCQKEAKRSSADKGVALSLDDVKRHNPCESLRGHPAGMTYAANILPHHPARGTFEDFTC
Experimental: (§1) Chinese Hamster Ovary (CHO) cells stably expressing rat ASIC1a were cultured in Ham’s F12, supplemented with 10% FBS, 1% penicillin–streptomycin and 500 µg/mL G418 and incubated at 37 °C with 5% CO2. Transient transfections of rASIC1a and cASIC1 wild-type or mutant channels in CHO cells were performed with Lipofectamine 3000 (Thermo Fisher Scientific) according to the manufacturer’s recommendations. The green fluorescent protein (GFP) cDNA (at 1/10 the amount of channel cDNA) was co-transfected with channel cDNA to aid the identification of transfected cells under the microscope in patch clamp experiments. All cDNAs were sequence verified.
(§2) Cells were freshly dissociated with CellStripper (Corning) and dispersed in a chamber on the stage of an inverted microscope. Upon formation of the whole-cell conformation, the cell was lifted from the bottom of the chamber and placed at the tip of a tubing perfusing an extracellular solution containing (in mM): 149 NaCl, 2 CaCl2, 4 KCl, 1 MgCl2, 5 glucose, 10 HEPES, pH 7.4, 310 mOsm/L. Extracellular solutions at more basic or acidic pHs were made by titrating the above pH 7.4 solution with NaOH or HCl (5 mM MES was added to solutions at pH 6.0 and lower). Pipette electrodes were filled with an intracellular solution containing (in mM): 135 KCl, 4 MgATP, 0.3 Na2GTP, 10 EGTA, and 20 HEPES, pH 7.2, 290 mOsm/L.
(§3) All recordings were performed at room temperature using an Axopatch 200B amplifier and pClamp 11 software (Molecular Devices). Currents were measured by whole-cell patch clamp, digitized at 10 kHz and lowpass filtered at 2 kHz. Series resistance was 75% compensated. Responses were elicited by rapid perfusion of acidic solutions using the SF-77B Fast-Step Perfusion device (Warner Instruments) for 40 ms once every 30 s (unless indicated otherwise) and recorded till steady state was reached. The holding potential was 0 mV unless indicated otherwise.
(§4) Baseline values (i.e., current amplitudes at the conditioning pH) were subtracted to obtain responses evoked by the test pH. Responses were normalized for each cell before averaging (see figure legends for more detail on normalization for each type of experiment). Concentration–response data were fitted to a logistic function of the form: R = (A1–A2)/(1 + (C/C0)^h)+A2, where R is the normalized response, C is either pH or compound concentration, C0 is the pH/concentration at which half-maximal response occurs (pH50 or IC50), h is the Hill coefficient, and A1 and A2 are constants. Kinetic parameters were obtained by fitting the data with either a single or double exponential function. Fitted data are shown as solid, dashed, or dotted curves.

[2] = biological target: T1, rat ASIC1a; experiment: Whole-cell patch clamp: inhibition of acid-induced current in CHO cells stably expressing rat ASIC1a; type: cell-based
Experimental: as §1, §2, §3, §4

## Cc1cc(N2CC(Oc3cc(F)c4c(N)n[nH]c4c3)C2)c(F)cn1 [JNJ-67869386]
[1]; t = 30 s
  pH 6.8-induced current, % pH8.2 control: 63.8%
[1]; t = 40 s
  pH 6.8-induced current, % pH8.2 control: 78.5%
[1]; t = 50 s
  pH 6.8-induced current, % pH8.2 control: 78.9%
[1]; t = 60 s
  pH 6.8-induced current, % pH8.2 control: 93.2%
[1]; t = 70 s
  pH 6.8-induced current, % pH8.2 control: 87.4%
[1]; t = 80 s
  pH 6.8-induced current, % pH8.2 control: 90.7%
[1]; t = 90 s
  pH 6.8-induced current, % pH8.2 control: 90.7%
[1]; t = 100 s
  pH 6.8-induced current, % pH8.2 control: 91.5%
[1]; t = 110 s
  pH 6.8-induced current, % pH8.2 control: 90.6%
[1]; t = 120 s
  pH 6.8-induced current, % pH8.2 control: 89.7%
[1]; t = 130 s
  pH 6.8-induced current, % pH8.2 control: 92.5%
[1]; t = 140 s
  pH 6.8-induced current, % pH8.2 control: 93.0%
[1]; t = 150 s
  pH 6.8-induced current, % pH8.2 control: 92.2%
[1]; t = 160 s
  pH 6.8-induced current, % pH8.2 control: 93.0%
[2]; CHO, pH 5, pH5.0, 10 nM, read-out: current inhibition, mean (source data Fig. 1e)
  inhibition at 0.01 µM: 8%
[2]; CHO, pH 5, pH5.0, 30 nM, read-out: current inhibition, mean (source data Fig. 1e)
  inhibition at 0.03 µM: 15.3%
[2]; CHO, pH 5, pH5.0, 100 nM, read-out: current inhibition, mean (source data Fig. 1e)
  inhibition at 0.1 µM: 20.5%
[2]; CHO, pH 5, pH5.0, 300 nM, read-out: current inhibition, mean (source data Fig. 1e)
  inhibition at 0.3 µM: 25.2%
[2]; CHO, pH 5, pH5.0, 1000 nM, read-out: current inhibition, mean (source data Fig. 1e)
  inhibition at 1 µM: 28.4%
[2]; CHO, pH 6, pH6.0, 10 nM, read-out: current inhibition, mean (source data Fig. 1e)
  inhibition at 0.01 µM: 17.9%
[2]; CHO, pH 6, pH6.0, 30 nM, read-out: current inhibition, mean (source data Fig. 1e)
  inhibition at 0.03 µM: 38.3%
[2]; CHO, pH 6, pH6.0, 100 nM, read-out: current inhibition, mean (source data Fig. 1e)
  inhibition at 0.1 µM: 61.3%
[2]; CHO, pH 6, pH6.0, 300 nM, read-out: current inhibition, mean (source data Fig. 1e)
  inhibition at 0.3 µM: 68.9%
[2]; CHO, pH 6, pH6.0, 1000 nM, read-out: current inhibition, mean (source data Fig. 1e)
  inhibition at 1 µM: 71.7%
[2]; CHO, pH 6, pH6.0, 3000 nM, read-out: current inhibition, mean (source data Fig. 1e)
  inhibition at 3 µM: 79.2%
[2]; CHO, pH 6.8, 10 nM, 0 mV, read-out: inhibition of pH 6.8-induced current
  inhibition at 0.01 µM: 75.6 ± 6.9%
[2]; CHO, pH 6.8, 10 nM, −80 mV, read-out: inhibition of pH 6.8-induced current
  inhibition at 0.01 µM: 78.2 ± 5%
[2]; CHO, pH 6.8, pH6.8, 1 nM, read-out: current inhibition, mean (source data Fig. 1e)
  inhibition at 0.001 µM: 15.3%
[2]; CHO, pH 6.8, pH6.8, 3 nM, read-out: current inhibition, mean (source data Fig. 1e)
  inhibition at 0.003 µM: 33.9%
[2]; CHO, pH 6.8, pH6.8, 10 nM, read-out: current inhibition, mean (source data Fig. 1e)
  inhibition at 0.01 µM: 62.8%
[2]; CHO, pH 6.8, pH6.8, 30 nM, read-out: current inhibition, mean (source data Fig. 1e)
  inhibition at 0.03 µM: 89.8%
[2]; CHO, pH 6.8, pH6.8, 100 nM, read-out: current inhibition, mean (source data Fig. 1e)
  inhibition at 0.1 µM: 97.6%
[2]; CHO, pH 7.1, pH7.1, 3 nM, read-out: current inhibition, mean (source data Fig. 1e)
  inhibition at 0.003 µM: 42.7%
[2]; CHO, pH 7.1, pH7.1, 10 nM, read-out: current inhibition, mean (source data Fig. 1e)
  inhibition at 0.01 µM: 78.1%
[2]; CHO, pH 7.1, pH7.1, 30 nM, read-out: current inhibition, mean (source data Fig. 1e)
  inhibition at 0.03 µM: 96.5%
[2]; CHO, pH 7.1, pH7.1, 100 nM, read-out: current inhibition, mean (source data Fig. 1e)
  inhibition at 0.1 µM: 99.8%
[2]; test pH 5.0, holding pH 8.2
  IC50: 34.4 ± 7.6 nM
  max %inhibition: 30.4 ± 1.8%
[2]; test pH 6.0, holding pH 8.2
  max %inhibition: 76.5 ± 2.2%
[2]; test pH 6.0, holding pH 8.2, WT
  IC50: 28.9 ± 3.6 nM
[2]; test pH 6.8, holding pH 8.2
  IC50: 5.5 ± 0.4 nM
  max %inhibition: 100%
[2]; test pH 7.1, holding pH 8.2
  IC50: 3.8 ± 0.2 nM
  max %inhibition: 100%
